Assay results published in ChEMBL document CHEMBL6182909 (J Med Chem, 2025).

What was measured:
[1] = target: T1, 5-hydroxytryptamine receptor 2B (Homo sapiens, UniProt P41595); experiment: Displacement of [125I]-DOI from 5-HT2B receptor (unknown origin) expressed in HEK293 cell membrane incubated for 1 hr by scintillation counter analysis; assay type: cell membranes
[2] = target: T1, 5-hydroxytryptamine receptor 2B; experiment: Displacement of [125I]-DOI from 5-HT2B receptor (unknown origin) expressed in HEK293 cell membrane assessed as inhibition constant incubated for 1 hr by scintillation counter analysis; assay type: cell membranes
[3] = target: T2, 5-hydroxytryptamine receptor 2A (Homo sapiens, UniProt P28223); experiment: Displacement of [125I]-DOI from 5-HT2A receptor (unknown origin) expressed in HEK293 cell membrane assessed as inhibition constant incubated for 1 hr by scintillation counter analysis; assay type: cell membranes
[4] = target: T3, 5-hydroxytryptamine receptor 2C (Homo sapiens, UniProt P28335)
T3 sequence (P28335 whole entry): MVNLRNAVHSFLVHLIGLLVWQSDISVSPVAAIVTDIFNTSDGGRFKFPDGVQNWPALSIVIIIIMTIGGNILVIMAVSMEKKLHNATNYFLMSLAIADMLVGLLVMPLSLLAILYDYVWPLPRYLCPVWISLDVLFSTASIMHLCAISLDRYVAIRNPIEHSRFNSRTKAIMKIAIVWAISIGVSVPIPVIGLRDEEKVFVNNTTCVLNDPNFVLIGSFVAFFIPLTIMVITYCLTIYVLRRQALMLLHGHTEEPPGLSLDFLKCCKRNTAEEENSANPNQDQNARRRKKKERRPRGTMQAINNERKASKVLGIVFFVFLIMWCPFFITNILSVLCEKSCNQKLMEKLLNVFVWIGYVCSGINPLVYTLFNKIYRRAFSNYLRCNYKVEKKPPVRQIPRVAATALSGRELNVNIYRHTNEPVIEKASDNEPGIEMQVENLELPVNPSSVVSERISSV

[5] = target: T3, 5-hydroxytryptamine receptor 2C; remark: listed apart in the source
[6] = target: T2, 5-hydroxytryptamine receptor 2A; experiment: Displacement of [125I]-DOI from 5-HT2A receptor (unknown origin) expressed in HEK293 cell membrane incubated for 1 hr by scintillation counter analysis; assay type: cell membranes
Rattus norvegicus [7] = experiment: Hypophagic effect in fasted male Sprague-Dawley rat assessed as inhibition of food intake at 5 mg/kg, po measured after 1 hr relative to control; assay type: functional
[8] = Drug concentration in plasma of fasted male Sprague-Dawley rat assessed as inhibition of food intake at 10 mg/kg, po measured after 1 hr relative to control; assay type: organism-based
Rattus norvegicus [9] = experiment: Hypophagic effect in fasted male Sprague-Dawley rat assessed as effective dose administered orally measured after 1 hr relative to control; assay type: functional; settings: route po
[10] = Drug concentration in brain of fasted male Sprague-Dawley rat assessed as inhibition of food intake at 10 mg/kg, po measured after 1 hr relative to control; assay type: organism-based; settings: read-out: Ct
Rattus norvegicus [11] = experiment: Hypophagic effect in fasted male Sprague-Dawley rat assessed as inhibition of food intake at 10 mg/kg, po measured after 1 hr relative to control; assay type: functional; settings: for inhibition (INH): 10 mg/kg
[12] = AUC (0 to infinity) in mouse at 5 mg/kg, po; assay type: ADME, organism-based; settings: in vivo
[13] = Volume of distribution at steady state in mouse at 2 mg/kg, iv; assay type: ADME, organism-based; settings: in vivo, read-out: Vdss
[14] = Oral bioavailability in Cynomolgus monkey at 5 mg/kg; assay type: ADME, organism-based, Macaca fascicularis; settings: in vivo
[15] = Renal clearance in dog at 2 mg/kg, iv; assay type: ADME, organism-based, Canis lupus familiaris; settings: in vivo
[16] = Renal clearance in Cynomolgus monkey at 2 mg/kg, iv; assay type: ADME, organism-based, Macaca fascicularis; settings: in vivo
[17] = Cmax in mouse at 5 mg/kg, po; assay type: ADME, organism-based; settings: in vivo
[18] = AUC (0 to infinity) in mouse at 2 mg/kg, iv; assay type: ADME, organism-based; settings: in vivo
[19] = Half life in mouse at 5 mg/kg, po; assay type: ADME, organism-based; settings: in vivo
[20] = Tmax in dog at 5 mg/kg, po; assay type: ADME, organism-based, Canis lupus familiaris; settings: in vivo
[21] = AUC (0 to infinity) in rat at 2 mg/kg, iv; assay type: ADME, organism-based; settings: in vivo
[22] = Half life in dog at 5 mg/kg, po; assay type: ADME, organism-based, Canis lupus familiaris; settings: in vivo
[23] = Tmax in Cynomolgus monkey at 5 mg/kg, po; assay type: ADME, organism-based, Macaca fascicularis; settings: in vivo
[24] = Clearance in rat at 2 mg/kg, iv; assay type: ADME, organism-based; settings: in vivo
[25] = Oral bioavailability in dog at 5 mg/kg; assay type: ADME, organism-based, Canis lupus familiaris; settings: in vivo
[26] = Cmax in Cynomolgus monkey at 5 mg/kg, po; assay type: ADME, organism-based, Macaca fascicularis; settings: in vivo
[27] = Cmax in dog at 5 mg/kg, po; assay type: ADME, organism-based, Canis lupus familiaris; settings: in vivo
[28] = Volume of distribution at steady state in dog at 2 mg/kg, iv; assay type: ADME, organism-based, Canis lupus familiaris; settings: in vivo, read-out: Vdss
[29] = Volume of distribution at steady state in rat at 2 mg/kg, iv; assay type: ADME, organism-based; settings: in vivo, read-out: Vdss
[30] = Oral bioavailability in rat at 5 mg/kg; assay type: ADME, organism-based; settings: in vivo
[31] = AUC (0 to infinity) in Cynomolgus monkey at 5 mg/kg, po; assay type: ADME, organism-based, Macaca fascicularis; settings: in vivo
[32] = AUC (0 to infinity) in Cynomolgus monkey at 2 mg/kg, iv; assay type: ADME, organism-based, Macaca fascicularis; settings: in vivo
[33] = Clearance in mouse at 2 mg/kg, iv; assay type: ADME, organism-based; settings: in vivo
[34] = Clearance in dog at 2 mg/kg, iv; assay type: ADME, organism-based, Canis lupus familiaris; settings: in vivo
[35] = AUC (0 to infinity) in rat at 5 mg/kg, po; assay type: ADME, organism-based; settings: in vivo
[36] = Clearance in Cynomolgus monkey at 2 mg/kg, iv; assay type: ADME, organism-based, Macaca fascicularis; settings: in vivo
[37] = Half life in Cynomolgus monkey at 5 mg/kg, po; assay type: ADME, organism-based, Macaca fascicularis; settings: in vivo
[38] = Renal clearance in rat at 2 mg/kg, iv; assay type: ADME, organism-based; settings: in vivo
[39] = Tmax in mouse at 5 mg/kg, po; assay type: ADME, organism-based; settings: in vivo
[40] = Half life in rat at 2 mg/kg, iv; assay type: ADME, organism-based; settings: in vivo
[41] = Half life in Cynomolgus monkey at 2 mg/kg, iv; assay type: ADME, organism-based, Macaca fascicularis; settings: in vivo
[42] = AUC (0 to infinity) in dog at 5 mg/kg, po; assay type: ADME, organism-based, Canis lupus familiaris; settings: in vivo
[43] = Half life in mouse at 2 mg/kg, iv; assay type: ADME, organism-based; settings: in vivo
[44] = Half life in dog at 2 mg/kg, iv; assay type: ADME, organism-based, Canis lupus familiaris; settings: in vivo
[45] = Cmax in rat at 5 mg/kg, po; assay type: ADME, organism-based; settings: in vivo
[46] = AUC (0 to infinity) in dog at 2 mg/kg, iv; assay type: ADME, organism-based, Canis lupus familiaris; settings: in vivo
[47] = Oral bioavailability in mouse at 5 mg/kg; assay type: ADME, organism-based; settings: in vivo
[48] = Volume of distribution at steady state in Cynomolgus monkey at 2 mg/kg, iv; assay type: ADME, organism-based, Macaca fascicularis; settings: in vivo, read-out: Vdss
[49] = Tmax in rat at 5 mg/kg, po; assay type: ADME, organism-based; settings: in vivo
[50] = Half life in rat at 5 mg/kg, po; assay type: ADME, organism-based; settings: in vivo
Rattus norvegicus [51] = species on record: Rattus norvegicus; experiment: animal or person; settings: Sprague-Dawley, 1 h, read-out: INH
Rattus norvegicus [52] = species on record: Rattus norvegicus; experiment: animal or person; settings: Sprague-Dawley, po, 1 h, read-out: INH

T1 sequence (P41595 whole entry): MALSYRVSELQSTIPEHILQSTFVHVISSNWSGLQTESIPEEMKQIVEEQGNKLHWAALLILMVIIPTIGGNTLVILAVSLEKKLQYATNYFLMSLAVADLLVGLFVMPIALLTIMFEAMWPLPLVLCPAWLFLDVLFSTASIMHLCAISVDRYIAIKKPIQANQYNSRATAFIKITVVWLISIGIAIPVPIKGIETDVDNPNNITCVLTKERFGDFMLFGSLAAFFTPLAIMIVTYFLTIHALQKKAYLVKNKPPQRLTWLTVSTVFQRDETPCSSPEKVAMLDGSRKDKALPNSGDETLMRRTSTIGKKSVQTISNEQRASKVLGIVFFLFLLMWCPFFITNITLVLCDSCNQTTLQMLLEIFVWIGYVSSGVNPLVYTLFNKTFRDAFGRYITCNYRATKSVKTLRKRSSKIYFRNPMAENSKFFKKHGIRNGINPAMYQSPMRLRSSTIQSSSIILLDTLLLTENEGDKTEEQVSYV
T2 sequence (P28223 whole entry): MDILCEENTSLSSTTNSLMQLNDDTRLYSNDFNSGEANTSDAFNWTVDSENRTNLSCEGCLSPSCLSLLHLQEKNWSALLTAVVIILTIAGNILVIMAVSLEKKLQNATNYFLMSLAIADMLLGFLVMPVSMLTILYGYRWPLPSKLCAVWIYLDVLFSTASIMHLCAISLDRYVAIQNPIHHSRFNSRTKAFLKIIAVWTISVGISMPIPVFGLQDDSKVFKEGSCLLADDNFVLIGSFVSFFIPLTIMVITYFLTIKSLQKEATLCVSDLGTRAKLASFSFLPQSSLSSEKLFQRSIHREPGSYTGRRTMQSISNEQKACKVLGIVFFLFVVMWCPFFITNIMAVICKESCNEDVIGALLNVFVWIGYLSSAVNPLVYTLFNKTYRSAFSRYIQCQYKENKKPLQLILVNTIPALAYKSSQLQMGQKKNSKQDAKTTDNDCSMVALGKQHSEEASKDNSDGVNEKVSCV

O=C(NC1CC1)c1ccc2c3c1CCN3CCNC2
EC50 [1]: > 50 µM
Ki [2]: 9.65 µM
Ki [3]: 21.8 µM
Ki [4]: 380 nM
EC50 [5]: 400 nM
EC50 [6]: > 50 µM

CNC(=O)c1ccc2c3c1C(CC(F)(F)F)CN3CCNC2 (single isomer, unassigned; (+))
inhibition in vivo at 5 mg/kg (Rattus norvegicus [7]): 41%
concentration at 1 h [8]: 1660 ng/mL
ED50 (Rattus norvegicus [9]): 5.2 mg/kg
concentration at 1 h [10]: 440 ng/g
inhibition (INH) (Rattus norvegicus [11]): 83%

C[C@H]1CN2CCNCc3ccc(C(=O)NCC(F)F)c1c32 [BEXICASERIN]
AUC(0-inf) [12]: 910 ng·h/mL
Vd [13]: 2.98 L/kg
bioavailability [14]: 58%
CL renal [15]: 4.8 mL/day/kg
CL renal [16]: 2 mL/h/kg
Cmax [17]: 820 ng/mL
AUC(0-inf) [18]: 318 ng·h/mL
half-life [19]: 90 min
Tmax [20]: 34.8 min
AUC(0-inf) [21]: 577 ng·h/mL
half-life [22]: 240 min
Tmax [23]: 3 h
clearance [24]: 58.5 mL/min/kg
bioavailability [25]: 97%
Cmax [26]: 430 ng/mL
Cmax [27]: 1590 ng/mL
Vd [28]: 1.85 L/kg
Vd [29]: 3.69 L/kg
bioavailability [30]: 89%
inhibition in vivo at 5 mg/kg (Rattus norvegicus [7]): 81%
concentration at 1 h [8]: 960 ng/mL
ED50 (Rattus norvegicus [9]): 2.8 mg/kg
AUC(0-inf) [31]: 4300 ng·h/mL
AUC(0-inf) [32]: 2970 ng·h/mL
clearance [33]: 68.8 mL/min/kg
clearance [34]: 20.7 mL/min/kg
AUC(0-inf) [35]: 1280 ng·h/mL
clearance [36]: 11.5 mL/min/kg
half-life [37]: 331 min
CL renal [38]: 9.65 mL/min/kg
concentration at 1 h [10]: 832 ng/g
Tmax [39]: 15 min
half-life [40]: 96 min
half-life [41]: 408 min
AUC(0-inf) [42]: 3920 ng·h/mL
half-life [43]: 39.6 min
half-life [44]: 78 min
Cmax [45]: 450 ng/mL
AUC(0-inf) [46]: 1620 ng·h/mL
bioavailability [47]: 100%
Vd [48]: 4.36 L/kg
Tmax [49]: 30 min
half-life [50]: 150 min

COCC(C)NC(=O)c1ccc2c3c1CCN3CCNC2 (centres undefined)
EC50 [1]: > 50 µM
Ki [2]: > 50 µM
Ki [3]: > 30 µM
Ki [4]: 3070 nM
EC50 [5]: 7400 nM
EC50 [6]: > 50 µM

COCCNC(=O)c1ccc2c3c1CCN3CCNC2
inhibition in vivo at 10 mg/kg (Rattus norvegicus [51]): 7%
inhibition in vivo at 20 mg/kg (Rattus norvegicus [52]): 25%
inhibition in vivo at 10 mg/kg (Rattus norvegicus [11]; Rattus norvegicus, Sprague-Dawley, po): 9%

CCC1CN2CCNCc3ccc(C(=O)NCC(F)F)c1c32 (single isomer, unassigned; (+))
inhibition in vivo at 5 mg/kg (Rattus norvegicus [7]): 27%
concentration at 1 h [8]: 866 ng/mL
ED50 (Rattus norvegicus [9]): > 5 mg/kg
concentration at 1 h [10]: 454 ng/g

O=C(NCCOc1ccccc1)c1ccc2c3c1CCN3CCNC2
EC50 [1]: > 50 µM
Ki [2]: 1.67 µM
Ki [3]: 2.63 µM
Ki [4]: 18 nM
EC50 [5]: 21 nM
EC50 [6]: > 50 µM

CCC1CN2CCNCc3ccc(C(=O)NC)c1c32 (single isomer, unassigned; (-))
inhibition (INH) (Rattus norvegicus [11]): 0%

CCC1CN2CCNCc3ccc(C(=O)NC)c1c32 (single isomer, unassigned; (+))
concentration at 1 h [8]: 1010 ng/mL
ED50 (Rattus norvegicus [9]): 6.4 mg/kg
concentration at 1 h [10]: 222 ng/g
inhibition (INH) (Rattus norvegicus [11]): 63%

O=C(NCCF)c1ccc2c3c1CCN3CCNC2
EC50 [1]: > 50 µM
Ki [2]: > 50 µM
Ki [3]: > 30 µM
Ki [4]: 249 nM
EC50 [5]: 430 nM
EC50 [6]: > 50 µM
